Experimental data as given in patent US20240125801A1, “MARKER FOR DIAGNOSIS OF NONALCOHOLIC FATTY LIVER DISEASE” (BREXOGEN INC., priority 2021, published 2024).

System: mice model of NASH induced by MC-deficient diet
Experiment: MCD diet-induced NASH mice model
Assay type: in vivo, C57BL/6 mice
Settings: BxC-V37e 400 μg/head i.v. or dulaglutide 2 nmol/kg s.c., 4 weeks, FIG. 4
Experimental: Six-week-old C57BL/6 male wild-type mice were obtained from Koatech Co., Ltd. and fed either chow diet (n=6) or a methionine/choline-deficient (MCD) diet (n=15) for […]. Animal care and procedures were approved in the rodent animal facility area of Knotus Co., Ltd. (Korea; Approval Number: 19-KE-265). After the MCD diet was fed for 18 weeks, 2 nmol/kg dulaglutide (GLP-1 receptor agonist) was subcutaneously injected into mice every other day for 4 weeks, and 400 μg/head BxC-e and BxC-V37e were intravenously injected once a day, three times a week, for 4 weeks. At the end of the experiments, the mice were anesthetized, and their serum and liver tissues were collected. […]
Serum samples were collected 4 weeks after the initiation of BxC-V37e injection, and the following parameters were measured using a blood biochemical analyzer (7180, Hitachi, Japan): ALT (Alanine transaminase), AST (Aspartate transaminase), TG (Triglyceride), glucose, TC (total cholesterol), HDL_C (high-density lipoprotein cholesterol), LDL_C (low-density lipoprotein cholesterol), LDH (lactate dehydrogenase), and GGT (gamma-glutamyltransferase).
Liver tissues were fixed in 10% paraformaldehyde and subjected to general tissue treatment, such as cutting, dehydration, and paraffin embedding. […] Both steatosis and hypertrophy were evaluated at magnifications of 40× to 100×. […]

dulaglutide
entire liver morphology (colour): No difference
